How the values were obtained:
Format in all cases: in vivo
[1] = test system: barnyardgrass (Echinochloa crus-galli); experiment: Test A preemergence; settings: Echinochloa crus-galli, pre-emergence, 240 h, 0 to 100 scale where 0 is no effect and 100 is complete control, read-out: Barnyardgrass plant response rating; for pest or weed control at 31 g/ha: 31 g ai/ha, Preemergence; for pest or weed control at 125 g/ha: 125 g ai/ha, preemergence, visual injury rating, approximately 10 d
Outline: (§1)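 Compounds were formulated in a non-phytotoxic solvent mixture with surfactant and applied as a preemergence directed soil spray after seeding, or sprayed postemergence over plants 2 to 10 cm tall at the one- to two-leaf stage. Evaluation after about 10 d compared treated with untreated controls, using a scale from 0 (no effect) to 100 (complete control).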

[2] = test system: ryegrass, Italian (Italian ryegrass, Lolium multiflorum); experiment: Test A preemergence; settings: Lolium multiflorum, pre-emergence, 240 h, 0 to 100 scale where 0 is no effect and 100 is complete control, read-out: Ryegrass, Italian plant response rating; for pest or weed control at 31 g/ha: 31 g ai/ha, Preemergence; for pest or weed control at 125 g/ha: 125 g ai/ha, preemergence, visual injury rating, approximately 10 d
Outline: as §1

[3] = test system: ragweed (common ragweed, Ambrosia elatior); experiment: Test A preemergence; settings: Ambrosia artemisiifolia, pre-emergence, 240 h, 0 to 100 scale where 0 is no effect and 100 is complete control, read-out: Ragweed plant response rating; for pest or weed control at 31 g/ha: 31 g ai/ha, Preemergence; for pest or weed control at 125 g/ha: 125 g ai/ha, preemergence, visual injury rating, approximately 10 d
Outline: as §1

[4] = test system: giant foxtail (Setaria faberii); experiment: Test A preemergence; settings: Setaria faberi, pre-emergence, 240 h, 0 to 100 scale where 0 is no effect and 100 is complete control, read-out: Foxtail, Giant plant response rating; for pest or weed control at 31 g/ha: 31 g ai/ha, Preemergence; for pest or weed control at 125 g/ha: 125 g ai/ha, preemergence, visual injury rating, approximately 10 d
Outline: as §1

[5] = test system: pigweed (Amaranthus retroflexus); experiment: Test A preemergence; settings: Amaranthus retroflexus, pre-emergence, 240 h, 0 to 100 scale where 0 is no effect and 100 is complete control, read-out: Pigweed plant response rating; for pest or weed control at 31 g/ha: 31 g ai/ha, Preemergence; for pest or weed control at 125 g/ha: 125 g ai/ha, preemergence, visual injury rating, approximately 10 d
Kochia (Kochia scoparia) [6] = experiment: Test A preemergence; settings: Bassia scoparia, pre-emergence, 240 h, 0 to 100 scale where 0 is no effect and 100 is complete control, read-out: Kochia plant response rating; for pest or weed control at 31 g/ha: 31 g ai/ha, Preemergence; for pest or weed control at 125 g/ha: 125 g ai/ha, preemergence, visual injury rating, approximately 10 d
Outline: as §1

rice (Oryra sativa) = experiment: Test B flooded paddy test; settings: Oryza sativa, 250 g ai/ha, Flood; 0 to 100 scale where 0 is no effect and 100 is complete control; read-out: Rice plant response rating
Outline: (§2)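 Evaluation by eye, against controls, occurred 13–15 d post-treatment in a greenhouse, using a 0 (no effect) to 100 (complete control) scale. Application was into the paddy water, 3 cm deep over the soil, on 2-leaf plants.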

[7] = test system: barnyardgrass (Echinochloa crus-galli); experiment: Test B flooded paddy test; settings: Echinochloa crus-galli, 250 g ai/ha, Flood; 0 to 100 scale where 0 is no effect and 100 is complete control; read-out: Barnyardgrass plant response rating
Outline: as §2

[8] = test system: ducksalad (Heteranthera limosa); experiment: Test B flooded paddy test; settings: Heteranthera limosa, 250 g ai/ha, Flood; 0 to 100 scale where 0 is no effect and 100 is complete control; read-out: Ducksalad plant response rating
Outline: as §2

[9] = test system: sedge, umbrella (small-flower umbrella sedge, Cyperus difformis); experiment: Test B flooded paddy test; settings: Cyperus difformis, 250 g ai/ha, Flood; 0 to 100 scale where 0 is no effect and 100 is complete control; read-out: Sedge, Umbrella plant response rating
Outline: as §2

[10] = test system: barnyardgrass (Echinochloa crus-galli); experiment: Test A postemergence; settings: Echinochloa crus-galli, post-emergence, 240 h, Postemergence; for pest or weed control at 125 g/ha: 125 g ai/ha, visual rating about 10 d after treatment, read-out: Barnyardgrass plant response rating (0 to 100 scale, 0 no effect, 100 complete control); for pest or weed control at 31 g/ha: 31 g ai/ha, 0 is no effect, 100 is complete control, read-out: Barnyardgrass plant response rating (0 to 100 scale)
Outline: as §1

corn (Zea mays) = experiment: Test A postemergence; settings: Zea mays, post-emergence, 240 h, Postemergence, read-out: Corn plant response rating (0 to 100 scale); for plant injury at 125 g/ha: 125 g ai/ha, visual rating about 10 d after treatment; for plant injury at 31 g/ha: 31 g ai/ha, 0 is no effect, 100 is complete control
Outline: as §1

[11] = test system: ryegrass, Italian (Italian ryegrass, Lolium multiflorum); experiment: Test A postemergence; settings: Lolium multiflorum, post-emergence, 240 h, Postemergence, read-out: Ryegrass, Italian plant response rating (0 to 100 scale); for pest or weed control at 125 g/ha: 125 g ai/ha, visual rating about 10 d after treatment; for pest or weed control at 31 g/ha: 31 g ai/ha, 0 is no effect, 100 is complete control
Outline: as §1

[12] = test system: ragweed (common ragweed, Ambrosia elatior); experiment: Test A postemergence; settings: Ambrosia artemisiifolia, post-emergence, 240 h, Postemergence, read-out: Ragweed plant response rating (0 to 100 scale); for pest or weed control at 125 g/ha: 125 g ai/ha, visual rating about 10 d after treatment; for pest or weed control at 31 g/ha: 31 g ai/ha, 0 is no effect, 100 is complete control
Outline: as §1

[13] = test system: giant foxtail (Setaria faberii); experiment: Test A postemergence; settings: Setaria faberi, post-emergence, 240 h, Postemergence, read-out: Foxtail, Giant plant response rating (0 to 100 scale); for pest or weed control at 125 g/ha: 125 g ai/ha, visual rating about 10 d after treatment; for pest or weed control at 31 g/ha: 31 g ai/ha, 0 is no effect, 100 is complete control
Outline: as §1

[14] = test system: blackgrass (Alopecurus myosuroides); experiment: Test A postemergence; settings: Alopecurus myosuroides, post-emergence, 240 h, Postemergence, read-out: Blackgrass plant response rating (0 to 100 scale); for pest or weed control at 125 g/ha: 125 g ai/ha, visual rating about 10 d after treatment; for pest or weed control at 31 g/ha: 31 g ai/ha, 0 is no effect, 100 is complete control
Outline: as §1

[15] = test system: pigweed (Amaranthus retroflexus); experiment: Test A postemergence; settings: Amaranthus retroflexus, post-emergence, 240 h, Postemergence, read-out: Pigweed plant response rating (0 to 100 scale); for pest or weed control at 125 g/ha: 125 g ai/ha, visual rating about 10 d after treatment; for pest or weed control at 31 g/ha: 31 g ai/ha, 0 is no effect, 100 is complete control
Outline: as §1

[16] = test system: Galium (catchweed bedstraw, Galium aparine); experiment: Test A postemergence; settings: Galium, post-emergence, 240 h, Postemergence, read-out: Galium plant response rating (0 to 100 scale); for pest or weed control at 125 g/ha: 125 g ai/ha, visual rating about 10 d after treatment; for pest or weed control at 31 g/ha: 31 g ai/ha, 0 is no effect, 100 is complete control
Outline: as §1

[17] = test system: wheat (Triticum aestivum); experiment: Test A postemergence; settings: Triticum aestivum, post-emergence, 240 h, Postemergence, read-out: Wheat plant response rating (0 to 100 scale); for plant injury at 125 g/ha: 125 g ai/ha, visual rating about 10 d after treatment; for plant injury at 31 g/ha: 31 g ai/ha, 0 is no effect, 100 is complete control
Outline: as §1

Kochia (Kochia scoparia) [18] = experiment: Test A postemergence; settings: Bassia scoparia, post-emergence, 240 h, Postemergence, read-out: Kochia plant response rating (0 to 100 scale); for pest or weed control at 125 g/ha: 125 g ai/ha, visual rating about 10 d after treatment; for pest or weed control at 31 g/ha: 31 g ai/ha, 0 is no effect, 100 is complete control
Outline: as §1

Structure (SMILES)	pest or weed control at 31 g/ha [1] [%]	pest or weed control at 125 g/ha [1] [%]	pest or weed control at 31 g/ha [2] [%]	pest or weed control at 125 g/ha [2] [%]	pest or weed control at 31 g/ha [3] [%]	pest or weed control at 125 g/ha [3] [%]	pest or weed control at 31 g/ha [4] [%]	pest or weed control at 125 g/ha [4] [%]	pest or weed control at 31 g/ha [5] [%]	pest or weed control at 125 g/ha [5] [%]	pest or weed control at 31 g/ha (Kochia (Kochia scoparia) [6]) [%]	pest or weed control at 125 g/ha (Kochia (Kochia scoparia) [6]) [%]	pest or weed control at 250 g/ha (rice (Oryra sativa)) [%]	pest or weed control at 250 g/ha [7] [%]	pest or weed control at 250 g/ha [8] [%]	pest or weed control at 250 g/ha [9] [%]	pest or weed control at 125 g/ha [10] [%]	pest or weed control at 31 g/ha [10] [%]	plant injury at 125 g/ha (corn (Zea mays)) [%]	plant injury at 31 g/ha (corn (Zea mays)) [%]	further results
O=C1NC[C@H](c2cc(Cl)cc(Cl)c2)[C@H]1C(=O)Nc1cccc(F)c1F [Compound 1273]	60	80	0	40	0	0	80	90	0	20	0	50	0	30	90	0	60	50	60	0	pest or weed control at 125 g/ha [11]: 40%; pest or weed control at 31 g/ha [11]: 0%; pest or weed control at 125 g/ha [12]: 0%; pest or weed control at 31 g/ha [12]: 0%; pest or weed control at 125 g/ha [13]: 80%; pest or weed control at 31 g/ha [13]: 60%; pest or weed control at 125 g/ha [14]: 20%; pest or weed control at 31 g/ha [14]: 0%; pest or weed control at 125 g/ha [15]: 40%; pest or weed control at 31 g/ha [15]: 0%; pest or weed control at 125 g/ha [16]: 50%; pest or weed control at 31 g/ha [16]: 40%; plant injury at 125 g/ha [17]: 30%; plant injury at 31 g/ha [17]: 0%; pest or weed control at 125 g/ha (Kochia (Kochia scoparia) [18]): 60%; pest or weed control at 31 g/ha (Kochia (Kochia scoparia) [18]): 0%
CN1C[C@H](c2ccc3c(c2)C(F)(F)C(F)(F)O3)[C@@H](C(=O)Nc2cccc(F)c2F)C1=O [Compound 1271]	90	90	70	90	0	20	80	90	0	50	30	40	0	40	90	0	60	40	40	30	pest or weed control at 125 g/ha [11]: 30%; pest or weed control at 31 g/ha [11]: 0%; pest or weed control at 125 g/ha [12]: 0%; pest or weed control at 31 g/ha [12]: 0%; pest or weed control at 125 g/ha [13]: 80%; pest or weed control at 31 g/ha [13]: 20%; pest or weed control at 125 g/ha [14]: 30%; pest or weed control at 31 g/ha [14]: 0%; pest or weed control at 125 g/ha [15]: 30%; pest or weed control at 31 g/ha [15]: 20%; pest or weed control at 125 g/ha [16]: 60%; pest or weed control at 31 g/ha [16]: 60%; plant injury at 125 g/ha [17]: 60%; plant injury at 31 g/ha [17]: 20%; pest or weed control at 125 g/ha (Kochia (Kochia scoparia) [18]): 40%; pest or weed control at 31 g/ha (Kochia (Kochia scoparia) [18]): 20%

Source: patent US12077503B2, “Substituted cyclic amides and their use as herbicides” (FMC CORPORATION, priority 2015, dated 2024)
